In ChEMBL document CHEMBL5126670, “Structure-Activity Relationships for the N-Me- Versus N-H-Amide Modification to Macrocyclic ent-Verticilide Antiarrhythmics” (ACS Med Chem Lett, 2022):
Active and inactive are the calls of the source. No cut-off for these calls is given here.

target: Ryanodine receptor 2 (Mus musculus) (UniProt E9Q401); test: Inhibition of RyR2 in Casq2 gene knockout mouse cardiomyocytes assessed as reduction in calcium sparks frequency at 25 uM incubated for 15 mins by calcium sparks assay; assay type: cell-based; conditions: Cardiomyocyte
Sequence (E9Q401 whole entry): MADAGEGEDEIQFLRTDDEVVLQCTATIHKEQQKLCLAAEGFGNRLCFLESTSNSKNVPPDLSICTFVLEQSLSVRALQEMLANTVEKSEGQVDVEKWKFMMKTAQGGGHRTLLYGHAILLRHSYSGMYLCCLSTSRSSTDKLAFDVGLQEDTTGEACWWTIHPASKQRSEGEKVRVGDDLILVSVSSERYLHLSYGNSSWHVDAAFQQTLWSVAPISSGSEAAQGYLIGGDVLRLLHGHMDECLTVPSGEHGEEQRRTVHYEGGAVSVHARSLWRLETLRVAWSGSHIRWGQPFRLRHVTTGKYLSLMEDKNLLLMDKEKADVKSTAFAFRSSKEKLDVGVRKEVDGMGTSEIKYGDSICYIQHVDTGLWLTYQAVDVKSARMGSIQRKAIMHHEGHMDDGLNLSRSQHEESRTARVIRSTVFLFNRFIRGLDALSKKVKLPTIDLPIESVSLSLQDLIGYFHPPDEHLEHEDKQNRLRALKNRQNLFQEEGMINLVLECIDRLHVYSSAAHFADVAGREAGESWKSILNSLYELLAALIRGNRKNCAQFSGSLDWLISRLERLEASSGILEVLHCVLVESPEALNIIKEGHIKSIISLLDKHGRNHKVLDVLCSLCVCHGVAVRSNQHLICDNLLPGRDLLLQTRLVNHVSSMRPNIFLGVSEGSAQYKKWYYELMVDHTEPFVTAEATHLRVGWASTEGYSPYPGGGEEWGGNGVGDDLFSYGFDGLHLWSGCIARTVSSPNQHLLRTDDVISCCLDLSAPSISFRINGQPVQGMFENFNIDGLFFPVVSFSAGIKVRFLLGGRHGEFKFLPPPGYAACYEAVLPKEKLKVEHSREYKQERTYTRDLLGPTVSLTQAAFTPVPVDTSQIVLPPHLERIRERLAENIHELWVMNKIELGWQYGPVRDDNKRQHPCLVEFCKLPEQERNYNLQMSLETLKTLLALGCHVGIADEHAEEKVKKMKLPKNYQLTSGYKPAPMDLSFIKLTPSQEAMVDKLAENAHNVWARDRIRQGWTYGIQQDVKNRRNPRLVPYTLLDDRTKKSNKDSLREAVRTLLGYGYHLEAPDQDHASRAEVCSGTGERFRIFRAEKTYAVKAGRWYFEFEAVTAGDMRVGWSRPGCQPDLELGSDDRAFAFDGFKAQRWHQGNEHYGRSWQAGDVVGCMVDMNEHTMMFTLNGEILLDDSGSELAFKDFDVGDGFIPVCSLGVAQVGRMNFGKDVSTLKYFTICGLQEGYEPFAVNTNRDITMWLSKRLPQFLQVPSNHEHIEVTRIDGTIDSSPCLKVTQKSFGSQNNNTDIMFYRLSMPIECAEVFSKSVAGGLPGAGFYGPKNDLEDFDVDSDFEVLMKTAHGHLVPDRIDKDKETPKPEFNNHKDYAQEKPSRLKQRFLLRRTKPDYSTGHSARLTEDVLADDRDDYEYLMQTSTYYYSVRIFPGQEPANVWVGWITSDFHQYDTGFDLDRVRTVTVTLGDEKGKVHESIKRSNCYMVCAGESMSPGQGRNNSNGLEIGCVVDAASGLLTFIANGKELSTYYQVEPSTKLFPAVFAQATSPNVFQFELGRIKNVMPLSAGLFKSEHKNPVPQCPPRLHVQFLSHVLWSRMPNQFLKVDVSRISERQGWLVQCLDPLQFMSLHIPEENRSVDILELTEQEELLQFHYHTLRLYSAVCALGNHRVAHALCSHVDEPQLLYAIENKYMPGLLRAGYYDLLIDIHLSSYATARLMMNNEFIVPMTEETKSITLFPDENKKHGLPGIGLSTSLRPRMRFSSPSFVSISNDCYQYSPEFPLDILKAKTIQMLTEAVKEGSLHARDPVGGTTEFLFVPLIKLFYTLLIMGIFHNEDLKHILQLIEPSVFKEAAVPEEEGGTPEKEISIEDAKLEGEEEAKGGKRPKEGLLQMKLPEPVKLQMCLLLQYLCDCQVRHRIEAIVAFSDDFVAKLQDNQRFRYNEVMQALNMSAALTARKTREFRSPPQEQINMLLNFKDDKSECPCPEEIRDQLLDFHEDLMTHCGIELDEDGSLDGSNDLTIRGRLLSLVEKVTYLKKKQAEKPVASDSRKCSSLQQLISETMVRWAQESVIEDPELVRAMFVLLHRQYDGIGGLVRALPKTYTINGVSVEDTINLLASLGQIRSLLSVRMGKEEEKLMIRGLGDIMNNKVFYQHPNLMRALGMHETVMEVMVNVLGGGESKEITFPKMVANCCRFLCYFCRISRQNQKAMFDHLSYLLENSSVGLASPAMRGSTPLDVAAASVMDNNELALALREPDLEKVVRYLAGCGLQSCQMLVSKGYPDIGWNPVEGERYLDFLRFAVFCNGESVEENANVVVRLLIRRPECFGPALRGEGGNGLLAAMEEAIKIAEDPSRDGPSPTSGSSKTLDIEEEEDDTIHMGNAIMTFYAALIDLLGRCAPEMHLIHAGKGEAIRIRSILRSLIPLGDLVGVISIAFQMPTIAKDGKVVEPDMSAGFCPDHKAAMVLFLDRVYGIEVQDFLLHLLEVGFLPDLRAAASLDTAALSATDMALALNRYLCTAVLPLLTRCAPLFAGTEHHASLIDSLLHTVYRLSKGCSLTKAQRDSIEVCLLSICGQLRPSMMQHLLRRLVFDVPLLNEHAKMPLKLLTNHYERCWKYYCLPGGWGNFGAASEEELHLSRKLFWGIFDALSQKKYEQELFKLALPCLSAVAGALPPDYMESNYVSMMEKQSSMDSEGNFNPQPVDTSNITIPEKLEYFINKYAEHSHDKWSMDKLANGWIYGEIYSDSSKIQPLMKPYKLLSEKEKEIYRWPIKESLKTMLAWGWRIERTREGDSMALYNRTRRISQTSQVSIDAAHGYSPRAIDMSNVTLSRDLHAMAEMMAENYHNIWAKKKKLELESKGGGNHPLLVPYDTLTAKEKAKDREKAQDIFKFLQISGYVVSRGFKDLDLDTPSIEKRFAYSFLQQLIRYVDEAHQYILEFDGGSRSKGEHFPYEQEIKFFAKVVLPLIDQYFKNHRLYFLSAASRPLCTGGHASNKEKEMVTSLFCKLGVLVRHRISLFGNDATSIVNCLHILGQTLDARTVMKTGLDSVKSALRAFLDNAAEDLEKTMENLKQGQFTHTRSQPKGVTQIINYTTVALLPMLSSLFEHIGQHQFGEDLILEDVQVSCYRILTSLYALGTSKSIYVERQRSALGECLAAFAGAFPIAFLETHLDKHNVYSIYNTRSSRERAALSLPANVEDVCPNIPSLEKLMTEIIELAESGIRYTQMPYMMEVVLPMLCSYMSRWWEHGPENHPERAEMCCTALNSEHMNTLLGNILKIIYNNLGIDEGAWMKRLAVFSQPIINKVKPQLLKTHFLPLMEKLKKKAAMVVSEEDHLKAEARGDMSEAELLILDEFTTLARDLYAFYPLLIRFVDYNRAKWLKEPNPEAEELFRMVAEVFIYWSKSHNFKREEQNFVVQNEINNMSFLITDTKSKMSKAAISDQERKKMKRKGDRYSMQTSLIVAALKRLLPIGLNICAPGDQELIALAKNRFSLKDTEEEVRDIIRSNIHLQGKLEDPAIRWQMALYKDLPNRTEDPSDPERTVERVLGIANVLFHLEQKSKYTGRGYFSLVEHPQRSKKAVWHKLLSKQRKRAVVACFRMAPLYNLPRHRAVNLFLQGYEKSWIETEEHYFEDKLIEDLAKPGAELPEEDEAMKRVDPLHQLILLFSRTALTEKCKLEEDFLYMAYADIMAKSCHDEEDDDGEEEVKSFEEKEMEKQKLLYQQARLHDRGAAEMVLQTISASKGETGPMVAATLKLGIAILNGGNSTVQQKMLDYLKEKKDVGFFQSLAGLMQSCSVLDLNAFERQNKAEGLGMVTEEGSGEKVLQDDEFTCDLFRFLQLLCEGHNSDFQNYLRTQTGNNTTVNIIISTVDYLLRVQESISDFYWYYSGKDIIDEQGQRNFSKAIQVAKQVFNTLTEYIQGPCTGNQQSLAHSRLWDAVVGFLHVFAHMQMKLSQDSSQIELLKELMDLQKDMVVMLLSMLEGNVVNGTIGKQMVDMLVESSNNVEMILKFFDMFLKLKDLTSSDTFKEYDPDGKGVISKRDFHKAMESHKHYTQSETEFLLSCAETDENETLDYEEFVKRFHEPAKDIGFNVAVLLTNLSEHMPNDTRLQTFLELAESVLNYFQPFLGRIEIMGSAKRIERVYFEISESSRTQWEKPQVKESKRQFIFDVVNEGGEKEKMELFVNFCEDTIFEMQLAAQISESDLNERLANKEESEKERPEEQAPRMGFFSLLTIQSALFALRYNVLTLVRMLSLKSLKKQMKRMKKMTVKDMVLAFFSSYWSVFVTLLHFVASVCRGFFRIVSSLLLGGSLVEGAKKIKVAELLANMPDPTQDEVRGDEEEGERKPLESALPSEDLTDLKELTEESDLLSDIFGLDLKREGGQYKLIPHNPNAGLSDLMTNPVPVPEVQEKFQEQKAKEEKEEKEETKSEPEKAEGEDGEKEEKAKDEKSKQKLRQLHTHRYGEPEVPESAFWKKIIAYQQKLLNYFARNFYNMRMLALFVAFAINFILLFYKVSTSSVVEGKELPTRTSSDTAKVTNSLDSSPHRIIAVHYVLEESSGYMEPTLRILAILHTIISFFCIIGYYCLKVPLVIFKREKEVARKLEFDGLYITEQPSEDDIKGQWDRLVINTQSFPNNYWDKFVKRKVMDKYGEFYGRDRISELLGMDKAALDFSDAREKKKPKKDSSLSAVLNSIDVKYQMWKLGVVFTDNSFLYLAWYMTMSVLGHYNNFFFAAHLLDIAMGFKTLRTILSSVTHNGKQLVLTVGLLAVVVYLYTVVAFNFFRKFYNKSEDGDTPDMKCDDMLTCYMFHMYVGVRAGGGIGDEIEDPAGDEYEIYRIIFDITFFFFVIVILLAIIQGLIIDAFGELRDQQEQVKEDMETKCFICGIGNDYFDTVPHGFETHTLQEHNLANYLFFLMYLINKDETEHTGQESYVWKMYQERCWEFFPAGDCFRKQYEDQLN

| SMILES | inhibition |
| --- | --- |
| CCCCC[C@@H]1OC(=O)[C@@H](C)N(C)C(=O)[C@H](CCCCC)OC(=O)[C@@H](C)NC(=O)[C@H](CCCCC)OC(=O)[C@@H](C)NC1=O | Active |
| CCCCC[C@@H]1OC(=O)[C@@H](C)N(C)C(=O)[C@H](CCCCC)OC(=O)[C@@H](C)N(C)C(=O)[C@H](CCCCC)OC(=O)[C@@H](C)NC1=O | Active |
| CCCCC[C@@H]1OC(=O)[C@@H](C)NC(=O)[C@H](CCCCC)OC(=O)[C@@H](C)NC(=O)[C@H](CCCCC)OC(=O)[C@@H](C)NC1=O | Active |
| CCCCC[C@@H]1OC(=O)[C@@H](C)N(C)C(=O)[C@H](CCCCC)OC(=O)[C@@H](C)N(C)C(=O)[C@H](CCCCC)OC(=O)[C@@H](C)N(C)C1=O | Active |
